Here are results for 19 compounds from patent US20230257372A1 (CHONG KUN DANG PHARMACEUTICAL CORP., priority 2020, published 2023).

One experiment concerns the target T1, human recombinant HDAC6 (Homo sapiens, UniProt Q9UBN7).
T1 construct: purchased Calbiochem Inc. 382180
T1 sequence (Q9UBN7 1-1215): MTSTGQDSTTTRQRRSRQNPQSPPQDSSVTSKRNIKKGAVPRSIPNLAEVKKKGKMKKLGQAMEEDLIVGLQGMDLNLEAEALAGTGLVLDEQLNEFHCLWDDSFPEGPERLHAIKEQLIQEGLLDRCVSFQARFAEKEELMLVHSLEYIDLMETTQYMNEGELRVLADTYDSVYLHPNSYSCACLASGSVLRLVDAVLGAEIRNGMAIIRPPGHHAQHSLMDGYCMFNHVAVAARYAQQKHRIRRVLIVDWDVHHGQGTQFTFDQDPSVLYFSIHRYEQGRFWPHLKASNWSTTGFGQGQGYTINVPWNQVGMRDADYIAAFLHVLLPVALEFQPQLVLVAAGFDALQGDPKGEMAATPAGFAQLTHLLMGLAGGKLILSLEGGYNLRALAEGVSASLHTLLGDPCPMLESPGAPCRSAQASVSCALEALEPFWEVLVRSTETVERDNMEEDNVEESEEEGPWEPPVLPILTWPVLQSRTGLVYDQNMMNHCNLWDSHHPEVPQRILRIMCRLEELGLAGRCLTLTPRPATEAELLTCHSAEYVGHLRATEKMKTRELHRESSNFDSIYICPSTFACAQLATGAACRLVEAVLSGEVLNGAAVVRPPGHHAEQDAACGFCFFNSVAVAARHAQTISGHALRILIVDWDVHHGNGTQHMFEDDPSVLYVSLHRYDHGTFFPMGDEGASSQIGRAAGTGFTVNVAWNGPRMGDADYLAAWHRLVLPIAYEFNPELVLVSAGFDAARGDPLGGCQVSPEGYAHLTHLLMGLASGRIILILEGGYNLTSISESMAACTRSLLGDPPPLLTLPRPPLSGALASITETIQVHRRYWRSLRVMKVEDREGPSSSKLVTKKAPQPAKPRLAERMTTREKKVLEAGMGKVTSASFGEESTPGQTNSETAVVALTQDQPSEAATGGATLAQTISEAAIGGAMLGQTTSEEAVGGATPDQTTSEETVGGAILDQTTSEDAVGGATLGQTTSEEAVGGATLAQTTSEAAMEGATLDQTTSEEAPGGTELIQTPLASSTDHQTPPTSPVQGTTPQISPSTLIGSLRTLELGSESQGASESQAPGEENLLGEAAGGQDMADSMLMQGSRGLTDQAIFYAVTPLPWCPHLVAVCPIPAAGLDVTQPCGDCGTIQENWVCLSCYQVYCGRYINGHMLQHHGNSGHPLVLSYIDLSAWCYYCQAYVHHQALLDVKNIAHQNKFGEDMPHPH
As to the kind of experiment: HDAC6 enzyme activity inhibition (HDAC Fluorimetric Drug Discovery Kit). Format: biochemical. The essentials:
(§1)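 Enzyme at 0.3 µg per well was reacted with 10 μM fluorogenic substrate in presence of 5-fold diluted compound, 30° C for 60 min.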

The target in a further experiment is T2, human recombinant HDAC1 (Homo sapiens, UniProt Q13547).
T2 construct: purchased Enzo Life Science, Inc. BML-SE456
Put plainly: HDAC1 enzyme activity inhibition (HDAC Fluorimetric Drug Discovery Kit). Format: biochemical. The note with it: read-out: HDAC1. The essentials:
as §1

Where [1] appears, read: human recombinant HDAC6, IC50 calculated with GraphPad Prism.
[2] abbreviates: human recombinant HDAC1, IC50 calculated with GraphPad Prism.
[3] abbreviates: human recombinant HDAC6, same protocol as HDAC1.
Setting [4] is: human recombinant HDAC1, Fluor de Lys substrate, 30° C. 60 minutes.

SMILES strings stand for the structures. Where two headings read alike, the source gives them in different places. Bounds are passed on as bounds.

T2 sequence (Q13547 whole entry): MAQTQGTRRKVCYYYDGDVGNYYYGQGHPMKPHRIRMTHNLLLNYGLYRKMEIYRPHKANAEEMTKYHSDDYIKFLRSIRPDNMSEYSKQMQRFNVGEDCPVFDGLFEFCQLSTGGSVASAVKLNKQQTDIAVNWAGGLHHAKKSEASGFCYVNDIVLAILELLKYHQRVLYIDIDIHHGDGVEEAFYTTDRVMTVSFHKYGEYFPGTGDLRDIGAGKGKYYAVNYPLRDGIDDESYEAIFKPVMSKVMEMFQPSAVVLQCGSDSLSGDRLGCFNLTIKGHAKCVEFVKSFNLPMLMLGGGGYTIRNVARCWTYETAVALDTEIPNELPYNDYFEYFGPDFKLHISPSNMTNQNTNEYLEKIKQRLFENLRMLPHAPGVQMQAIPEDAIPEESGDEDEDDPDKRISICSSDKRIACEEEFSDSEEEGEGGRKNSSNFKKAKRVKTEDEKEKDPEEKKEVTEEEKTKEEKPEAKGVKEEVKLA

Regarding `FC(F)c1nnc(-c2ccc(Cn3cc(-c4ccc5[nH]cnc5c4)nn3)nc2)o1` [Compound 3843, 2-(6-((4-(1H-benzo[d]imidazol-5-yl)-1H-1,2,3-triazol-1-yl)methyl)pyridin-3-yl)-5-(difluoromethyl)-1,3,4-oxadiazole], the “HDAC6 selectivity (fold)” value on human recombinant HDAC6 (HDAC1 IC50 / HDAC6 IC50) was determined as 5952 fold. For the same compound, the IC50 at human recombinant HDAC6 (setting [1]) was 8.4 nM; at human recombinant HDAC1 (setting [2]), greater than 50000 nM.
For the compound `Cc1nc(-c2ccccc2)cn1Cc1ccc(-c2nnc(C(F)F)o2)cn1` [Compound 3945, 2-(difluoromethyl)-5-(6-((2-methyl-4-phenyl-1H-imidazol-1-yl)methyl)pyridin-3-yl)-1,3,4-oxadiazole], on human recombinant HDAC6 (HDAC1 IC50 / HDAC6 IC50), the “HDAC6 selectivity (fold)” value stood at 258 fold. Also, the figures for the IC50 on human recombinant HDAC6 (setting [1]) and on human recombinant HDAC1 (setting [2]) were 193 nM and greater than 50000 nM, respectively.
Turning to `Fc1cc(-c2nnc(C(F)F)o2)cnc1Cn1cc(-c2ccccc2CN2CCC2)nn1` [Compound 18822, 2-(6-((4-(2-(azetidin-1-ylmethyl)phenyl)-1H-1,2,3-triazol-1-yl)methyl)-5-fluoropyridin-3-yl)-5-(difluoromethyl)-1,3,4-oxadiazole], the “HDAC6 selectivity (fold)” value on human recombinant HDAC6 (HDAC6 over HDAC1) stood at 98 fold. Further, the IC50 was 505 nM at human recombinant HDAC6 (setting [3]) and greater than 50000 nM at human recombinant HDAC1 (setting [4]).
As to `CC(C)N1CCc2ccc(-c3cn(Cc4ccc(-c5nnc(C(F)F)o5)cc4F)nn3)cc2C1` [Compound 4365, 2-(difluoromethyl)-5-(3-fluoro-4-((4-(2-isopropyl-1,2,3,4-tetrahydroisoquinolin-7-yl)-1H-1,2,3-triazol-1-yl)methyl)phenyl)-1,3,4-oxadiazole], the “HDAC6 selectivity (fold)” value at human recombinant HDAC6 (HDAC1 IC50 / HDAC6 IC50) was determined as 1089 fold. Besides, the IC50 at human recombinant HDAC6 (setting [1]) was 45.9 nM; on human recombinant HDAC1 (setting [2]), greater than 50000 nM.
In the case of `CCN1CCC(c2cn(Cc3ccc(-c4nnc(C(F)F)o4)cn3)nn2)CC1` [Compound 3807, 2-(difluoromethyl)-5-(6-((4-(1-ethylpiperidin-4-yl)-1H-1,2,3-triazol-1-yl)methyl)pyridin-3-yl)-1,3,4-oxadiazole], on human recombinant HDAC6 (HDAC1 IC50 / HDAC6 IC50), the “HDAC6 selectivity (fold)” value is recorded as 166 fold. The IC50 on human recombinant HDAC6 (setting [1]) was 301 nM; on human recombinant HDAC1 (setting [2]), greater than 50000 nM.
On the same counts, the results for `Fc1cc(-c2nnc(C(F)F)o2)ccc1Cn1cc(-c2cccc(N3CCN(C4CCC4)CC3)c2)nn1` [Compound 4376, 2-(4-((4-(3-(4-cyclobutylpiperazin-1-yl)phenyl)-1H-1,2,3-triazol-1-yl)methyl)-3-fluorophenyl)-5-(difluoromethyl)-1,3,4-oxadiazole] are 1094 fold, 45.7 nM and greater than 50000 nM.
The matching figures for `FC(F)c1nnc(-c2ccc(Cn3cnc(Br)c3)nc2)o1` [Compound 3949, 2-(6-((4-bromo-1H-imidazol-1-yl)methyl)pyridin-3-yl)-5-(difluoromethyl)-1,3,4-oxadiazole]: 445 fold, 112 nM and greater than 50000 nM.
The matching figures for `FC(F)c1nnc(-c2ccc(Cn3cc(-c4cccc(CN5CCC(F)(F)CC5)c4)nn3)cc2)o1` [Compound 4413, 2-(difluoromethyl)-5-(4-((4-(3-((4,4-difluoropiperidin-1-yl)methyl)phenyl)-1H-1,2,3-triazol-1-yl)methyl)phenyl)-1,3,4-oxadiazole]: 348 fold, 144 nM and greater than 50000 nM.
Turning to `Fc1cc(-c2nnc(C(F)F)o2)ccc1Cn1cc(-c2csc(CN3CCC3)c2)nn1` [Compound 18178, 2-(4-((4-(5-(azetidin-1-ylmethyl)thiophen-3-yl)-1H-1,2,3-triazol-1-yl)methyl)-3-fluorophenyl)-5-(difluoromethyl)-1,3,4-oxadiazole], the “HDAC6 selectivity (fold)” value at human recombinant HDAC6 (HDAC6 over HDAC1) came out at 657 fold. Also, the IC50 was 76.1 nM at human recombinant HDAC6 (setting [3]) and greater than 50000 nM on human recombinant HDAC1 (setting [4]).
Consider `OC1(c2cn(Cc3ccc(-c4nnc(C(F)F)o4)cn3)nn2)CCOC1` (stereo not drawn) [Compound 4277, 3-(1-((5-(5-(difluoromethyl)-1,3,4-oxadiazol-2-yl)pyridin-2-yl)methyl)-1H-1,2,3-triazol-4-yl)tetrahydrofuran-3-ol], for which, on human recombinant HDAC6 (HDAC1 IC50 / HDAC6 IC50), the “HDAC6 selectivity (fold)” value worked out at 212 fold. The results for the IC50 on human recombinant HDAC6 (setting [1]) and at human recombinant HDAC1 (setting [2]) were 235 nM and greater than 50000 nM, respectively.
As to `OCc1ccc(-c2cn(Cc3ccc(-c4nnc(C(F)F)o4)cc3F)nn2)nc1` [Compound 17545, (6-(1-(4-(5-(difluoromethyl)-1,3,4-oxadiazol-2-yl)-2-fluorobenzyl)-1H-1,2,3-triazol-4-yl)pyridin-3-yl)methanol], the “HDAC6 selectivity (fold)” value on human recombinant HDAC6 (HDAC6 over HDAC1) came to 880 fold. Besides, the results for the IC50 on human recombinant HDAC6 (setting [3]) and at human recombinant HDAC1 (setting [4]) were 56.8 nM and greater than 50000 nM, respectively.
On the same counts, the results for `Fc1cc(-c2nnc(C(F)F)o2)ccc1Cn1cc(-c2ccc(CN3CCC(F)(F)CC3)nc2)nn1` [Compound 17778, 2-(difluoromethyl)-5-(4-((4-(6-((4,4-difluoropiperidin-1-yl)methyl)pyridin-3-yl)-1H-1,2,3-triazol-1-yl)methyl)-3-fluorophenyl)-1,3,4-oxadiazole] are 603 fold, 82.9 nM and greater than 50000 nM.
With `CN(C)C1CCN(Cc2ccc(-c3cn(Cc4ccc(-c5nnc(C(F)F)o5)cc4F)nn3)cc2)CC1` [Compound 4494, 1-(4-(1-(4-(5-(difluoromethyl)-1,3,4-oxadiazol-2-yl)-2-fluorobenzyl)-1H-1,2,3-triazol-4-yl)benzyl)-N,N-dimethylpiperidin-4-amine], the “HDAC6 selectivity (fold)” value at human recombinant HDAC6 (HDAC1 IC50 / HDAC6 IC50) is given as 1466 fold. Moreover, the results for the IC50 on human recombinant HDAC6 (setting [1]) and on human recombinant HDAC1 (setting [2]) were 34.1 nM and greater than 50000 nM, respectively.
On the same counts, the results for `CC(C)N1CC(N2CCc3cc(-c4cn(Cc5ccc(-c6nnc(C(F)F)o6)cc5F)nn4)ccc3C2)C1` [Compound 4393, 2-(difluoromethyl)-5-(3-fluoro-4-((4-(2-(1-isopropylazetidin-3-yl)-1,2,3,4-tetrahydroisoquinolin-6-yl)-1H-1,2,3-triazol-1-yl)methyl)phenyl)-1,3,4-oxadiazole] are 1381 fold, 36.2 nM and greater than 50000 nM.
For `FC(F)c1nnc(-c2ccc(Cn3cc(-c4ccco4)nn3)nc2)o1` [Compound 3861, 2-(difluoromethyl)-5-(6-((4-(furan-2-yl)-1H-1,2,3-triazol-1-yl)methyl)pyridin-3-yl)-1,3,4-oxadiazole], the “HDAC6 selectivity (fold)” value on human recombinant HDAC6 (HDAC1 IC50 / HDAC6 IC50) worked out at 922 fold. The IC50 on human recombinant HDAC6 (setting [1]) is 54.2 nM; at human recombinant HDAC1 (setting [2]), greater than 50000 nM.
On to `FC(F)c1nnc(-c2ccc(Cn3cc(-c4ccc(CNC5COC5)cc4)nn3)nc2)o1` [Compound 4566, N-(4-(1-((5-(5-(difluoromethyl)-1,3,4-oxadiazol-2-yl)pyridin-2-yl)methyl)-1H-1,2,3-triazol-4-yl)benzyl)oxetan-3-amine], for which the “HDAC6 selectivity (fold)” value on human recombinant HDAC6 (HDAC6 over HDAC1) was determined as 1256 fold. The IC50 at human recombinant HDAC6 (setting [3]) was 39.8 nM; at human recombinant HDAC1 (setting [4]), greater than 50000 nM.
Regarding `FC(F)c1nnc(-c2ccc(Cn3cc(-c4cncnc4)nn3)nc2)o1` [Compound 3960, 2-(difluoromethyl)-5-(6-((4-(pyrimidin-5-yl)-1H-1,2,3-triazol-1-yl)methyl)pyridin-3-yl)-1,3,4-oxadiazole], the “HDAC6 selectivity (fold)” value at human recombinant HDAC6 (HDAC1 IC50 / HDAC6 IC50) came out at 473 fold. The IC50 on human recombinant HDAC6 (setting [1]) was 105 nM; on human recombinant HDAC1 (setting [2]), greater than 50000 nM.
`FC(F)c1nnc(-c2ccc(Cn3cc(-c4cccc5[nH]ccc45)nn3)cc2)o1` [Compound 4078, 2-(4-((4-(1H-indol-4-yl)-1H-1,2,3-triazol-1-yl)methyl)phenyl)-5-(difluoromethyl)-1,3,4-oxadiazole]: the “HDAC6 selectivity (fold)” value at human recombinant HDAC6 (HDAC1 IC50 / HDAC6 IC50) is listed as 1424 fold. The IC50 was 35.1 nM at human recombinant HDAC6 (setting [1]) and greater than 50000 nM on human recombinant HDAC1 (setting [2]).
As for `CCN1CCN(c2cccc(-c3cn(Cc4ccc(-c5nnc(C(F)F)o5)cc4F)nn3)n2)CC1` [Compound 17362, 2-(difluoromethyl)-5-(4-((4-(6-(4-ethylpiperazin-1-yl)pyridin-2-yl)-1H-1,2,3-triazol-1-yl)methyl)-3-fluorophenyl)-1,3,4-oxadiazole], on human recombinant HDAC6 (HDAC6 over HDAC1), the “HDAC6 selectivity (fold)” value was 2032 fold. The IC50 was 24.6 nM at human recombinant HDAC6 (setting [3]) and greater than 50000 nM on human recombinant HDAC1 (setting [4]).
